This assay concerns the target human mGlu4 receptor (Homo sapiens (Human), UniProt Q14833). As to the kind of experiment: Ca2+ mobilization in vitro assay on recombinant human mGlu4 expressed in HEK293 cells (PAM). The class given is cell-based. The following applies: for Emax: HEK293, maximal response in % of maximal stimulatory effect of saturating L-AP4, read-out: Eff. (%); for EC50: HEK293 cells, human mGlu4, in presence of EC20 of L-AP4, read-out: EC50 (nM) mGlu4PAM. An outline of the steps: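 HEK293 cells stably expressing human mGlu4 at low level, Fluo-4AM loaded; compound (11 half-log dilutions) pre-incubated 10–30 min at 37 °C, then L-AP4 added at EC20 (determined daily). Peak fluorescence minus basal, normalized to saturating L-AP4; EC50, Hill slope and % Emax from four-parameter fit.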

Chain of human mGlu4 receptor (Q14833 33-912): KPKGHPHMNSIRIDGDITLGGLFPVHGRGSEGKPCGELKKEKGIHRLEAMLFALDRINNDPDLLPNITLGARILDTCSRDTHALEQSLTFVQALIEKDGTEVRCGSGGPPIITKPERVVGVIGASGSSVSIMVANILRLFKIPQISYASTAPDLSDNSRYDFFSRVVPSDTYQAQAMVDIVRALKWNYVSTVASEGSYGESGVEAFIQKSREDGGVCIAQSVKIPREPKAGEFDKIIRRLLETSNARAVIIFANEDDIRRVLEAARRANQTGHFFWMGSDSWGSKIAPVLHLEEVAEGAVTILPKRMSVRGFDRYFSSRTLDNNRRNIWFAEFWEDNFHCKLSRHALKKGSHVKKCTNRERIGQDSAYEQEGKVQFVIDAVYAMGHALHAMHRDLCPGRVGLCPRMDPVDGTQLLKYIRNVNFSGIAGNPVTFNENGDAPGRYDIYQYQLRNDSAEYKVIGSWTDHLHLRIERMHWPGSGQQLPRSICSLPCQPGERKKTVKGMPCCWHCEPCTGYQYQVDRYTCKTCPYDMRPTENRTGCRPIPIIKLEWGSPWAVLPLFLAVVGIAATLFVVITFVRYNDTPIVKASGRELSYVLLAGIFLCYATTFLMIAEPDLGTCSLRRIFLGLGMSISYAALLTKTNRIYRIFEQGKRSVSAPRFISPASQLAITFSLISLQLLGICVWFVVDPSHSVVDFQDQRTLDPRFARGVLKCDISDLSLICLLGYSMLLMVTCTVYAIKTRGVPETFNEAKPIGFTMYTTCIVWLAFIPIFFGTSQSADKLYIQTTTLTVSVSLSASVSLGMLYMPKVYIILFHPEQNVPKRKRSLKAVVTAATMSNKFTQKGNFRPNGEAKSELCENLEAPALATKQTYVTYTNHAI

Turning to `CCOc1ncc(N2CCN3C(=O)N(c4c(F)cc(C#Cc5ccccc5)cc4F)C(=O)C[C@@]3(C)C2=O)cn1` [Example 39, (9aS or 9aR)-7-[2,6-difluoro-4-(2-phenylethynyl)phenyl]-2-(2-ethoxypyrimidin-5-yl)-9a-methyl-4,9-dihydro-3H-pyrazino[1,2-c]pyrimidine-1,6,8-trione], the Emax came out at 103% and the EC50 (in general, the concentration giving half of the maximal effect) was 96 nM.
Regarding `CC(C)Oc1ncc(N2CCN3C(=O)N(c4c(F)cc(C#Cc5ccccc5)cc4F)C(=O)C[C@@]3(C)C2=O)cn1` [Example 40, (9aS)-7-[2,6-difluoro-4-(2-phenylethynyl)phenyl]-2-(2-isopropoxypyrimidin-5-yl)-9a-methyl-4,9-dihydro-3H-pyrazino[1,2-c]pyrimidine-1,6,8-trione], the Emax stood at 103% and the EC50 came out at 113 nM.
For `C[C@@]12CC(=O)N(c3c(F)cc(C#Cc4ccccc4)cc3F)C(=O)N1CCN(c1cnc(OCc3ccccc3)nc1)C2=O` [Example 41, (9aS)-2-(2-benzyloxypyrimidin-5-yl)-7-[2,6-difluoro-4-(2-phenylethynyl)phenyl]-9a-methyl-4,9-dihydro-3H-pyrazino[1,2-c]pyrimidine-1,6,8-trione] the same measures were 99% and 81 nM.
For `C[C@@]12CC(=O)N(c3c(F)cc(C#Cc4ccccc4)cc3F)C(=O)N1CCN(c1cnc(O)nc1)C2=O` [Example 42, (9aS)-7-[2,6-difluoro-4-(2-phenylethynyl)phenyl]-2-(2-hydroxypyrimidin-5-yl)-9a-methyl-4,9-dihydro-3H-pyrazino[1,2-c]pyrimidine-1,6,8-trione], in that order: 129% and 73 nM.
For `C[C@@]12CC(=O)N(c3c(F)cc(C#Cc4ccccc4)cc3F)C(=O)N1CCN(c1cnc(OC3CC3)nc1)C2=O` [Example 43, (9aS)-2-[2-(cyclopropoxy)pyrimidin-5-yl]-7-[2,6-difluoro-4-(2-phenylethynyl)phenyl]-9a-methyl-4,9-dihydro-3H-pyrazino[1,2-c]pyrimidine-1,6,8-trione] the same measures were 153% and 171 nM.
With `COc1cnc(N2CCN3C(=O)N(c4c(F)cc(C#Cc5ccccc5)cc4F)C(=O)C[C@@]3(C)C2=O)cn1` [Example 44, (9aS)-7-[2,6-difluoro-4-(2-phenylethynyl)phenyl]-2-(5-methoxypyrazin-2-yl)-9a-methyl-4,9-dihydro-3H-pyrazino[1,2-c]pyrimidine-1,6,8-trione], the Emax is 107% and the EC50 was determined as 123 nM.
For `C[C@@]12CC(=O)N(c3c(F)cc(C#Cc4ccccc4)cc3F)C(=O)N1CCN(c1cnc(OCc3ccccc3)cn1)C2=O` [Example 45, (9aS)-2-(5-benzyloxypyrazin-2-yl)-7-[2,6-difluoro-4-(2-phenylethynyl)phenyl]-9a-methyl-4,9-dihydro-3H-pyrazino[1,2-c]pyrimidine-1,6,8-trione], in that order: 122% and 190 nM.
For `C[C@@]12CC(=O)N(c3c(F)cc(C#Cc4ccccc4)cc3F)C(=O)N1CCN(c1cccnn1)C2=O` [Example 47, (9aS)-7-[2,6-difluoro-4-(2-phenylethynyl)phenyl]-9a-methyl-2-pyridazin-3-yl-4,9-dihydro-3H-pyrazino[1,2-c]pyrimidine-1,6,8-trione], in that order: 98% and 55 nM.
For `Cn1nc(N2CCN3C(=O)N(c4c(F)cc(C#Cc5ccccc5)cc4F)C(=O)C[C@@]3(C)C2=O)ccc1=O` [Example 49, (9aS)-7-[2,6-difluoro-4-(2-phenylethynyl)phenyl]-9a-methyl-2-(1-methyl-6-oxo-pyridazin-3-yl)-4,9-dihydro-3H-pyrazino[1,2-c]pyrimidine-1,6,8-trione] the same measures were 109% and 197 nM.
`C[C@@]12CC(=O)N(c3c(F)cc(C#Cc4ccccc4)cc3F)C(=O)N1CCN(c1ccnnc1)C2=O` [Example 50, (9aS)-7-[2,6-difluoro-4-(2-phenylethynyl)phenyl]-9a-methyl-2-pyridazin-4-yl-4,9-dihydro-3H-pyrazino[1,2-c]pyrimidine-1,6,8-trione]: the Emax amounted to 133% and the EC50 worked out at 74 nM.
For `Cc1nc(N2CCN3C(=O)N(c4c(F)cc(C#Cc5ccccc5)cc4F)C(=O)C[C@@]3(C)C2=O)cn1CC(F)(F)F` [Example 61, (9aS)-7-[2,6-difluoro-4-(2-phenylethynyl)phenyl]-9a-methyl-2-[2-methyl-1-(2,2,2-trifluoroethyl)imidazol-4-yl]-4,9-dihydro-3H-pyrazino[1,2-c]pyrimidine-1,6,8-trione], in that order: 172% and 272 nM.
Turning to `Cn1ccc(N2CCN3C(=O)N(c4c(F)cc(C#Cc5ccccc5)cc4F)C(=O)C[C@@]3(C)C2=O)n1` [Example 63, (9aS)-7-[2,6-difluoro-4-(2-phenylethynyl)phenyl]-9a-methyl-2-(1-methylpyrazol-3-yl)-4,9-dihydro-3H-pyrazino[1,2-c]pyrimidine-1,6,8-trione], the Emax was 136% and the EC50 is 165 nM.
For `Cn1nccc1N1CCN2C(=O)N(c3c(F)cc(C#Cc4ccccc4)cc3F)C(=O)C[C@@]2(C)C1=O` [Example 65, (9aS)-7-[2,6-difluoro-4-(2-phenylethynyl)phenyl]-9a-methyl-2-(2-methylpyrazol-3-yl)-4,9-dihydro-3H-pyrazino[1,2-c]pyrimidine-1,6,8-trione], in that order: 92% and 92 nM.
For `Cn1cc(N2CCN3C(=O)N(c4c(F)cc(C#Cc5ccccc5)cc4F)C(=O)C[C@@]3(C)C2=O)cn1` [Example 68, (9aS)-7-[2,6-difluoro-4-(2-phenylethynyl)phenyl]-9a-methyl-2-(1-methylpyrazol-4-yl)-4,9-dihydro-3H-pyrazino[1,2-c]pyrimidine-1,6,8-trione] the same measures were 135% and 90 nM.
For `CCn1cc(N2CCN3C(=O)N(c4c(F)cc(C#Cc5ccccc5)cc4F)C(=O)C[C@@]3(C)C2=O)cn1` [Example 69, (9aS)-7-[2,6-difluoro-4-(2-phenylethynyl)phenyl]-2-(1-ethylpyrazol-4-yl)-9a-methyl-4,9-dihydro-3H-pyrazino[1,2-c]pyrimidine-1,6,8-trione] the same measures were 184% and 151 nM.
Consider `CC(C)n1cc(N2CCN3C(=O)N(c4c(F)cc(C#Cc5ccccc5)cc4F)C(=O)C[C@@]3(C)C2=O)cn1` [Example 70, (9aS)-7-[2,6-difluoro-4-(2-phenylethynyl)phenyl]-2-(1-isopropylpyrazol-4-yl)-9a-methyl-4,9-dihydro-3H-pyrazino[1,2-c]pyrimidine-1,6,8-trione], for which the Emax worked out at 150% and the EC50 worked out at 139 nM.
For `C[C@@]12CC(=O)N(c3c(F)cc(C#Cc4ccccc4)cc3F)C(=O)N1CCN(c1cn[nH]c1)C2=O` [Example 71, (9aS)-7-[2,6-difluoro-4-(2-phenylethynyl)phenyl]-9a-methyl-2-(1H-pyrazol-4-yl)-4,9-dihydro-3H-pyrazino[1,2-c]pyrimidine-1,6,8-trione], in that order: 182% and 101 nM.
For `COCCCn1cc(N2CCN3C(=O)N(c4c(F)cc(C#Cc5ccccc5)cc4F)C(=O)C[C@@]3(C)C2=O)cn1` [Example 72, (9aS)-7-[2,6-difluoro-4-(2-phenylethynyl)phenyl]-2-[1-(3-methoxypropyl)pyrazol-4-yl]-9a-methyl-4,9-dihydro-3H-pyrazino[1,2-c]pyrimidine-1,6,8-trione], in that order: 149% and 122 nM.
For `Cn1cnc(N2CCN3C(=O)N(c4c(F)cc(C#Cc5ccccc5)cc4F)C(=O)C[C@@]3(C)C2=O)n1` [Example 73, (9aS)-7-[2,6-difluoro-4-(2-phenylethynyl)phenyl]-9a-methyl-2-(1-methyl-1,2,4-triazol-3-yl)-4,9-dihydro-3H-pyrazino[1,2-c]pyrimidine-1,6,8-trione] the same measures were 138% and 244 nM.
For `Cn1cc(N2CCN3C(=O)N(c4c(F)cc(C#Cc5ccccc5)cc4Cl)C(=O)C[C@@]3(C)C2=O)cn1` [Example 78, (9aS)-7-[2-chloro-6-fluoro-4-(2-phenylethynyl)phenyl]-9a-methyl-2-(1-methylpyrazol-4-yl)-4,9-dihydro-3H-pyrazino[1,2-c]pyrimidine-1,6,8-trione], the Emax was 117% and the 50% effective concentration (EC50) was found to be 75 nM.
For `COCCN1CCN2C(=O)N(c3c(F)cc(C#Cc4ccccc4)cc3F)C(=O)C[C@@]2(C)C1=O` [Example 79, (9aS)-7-[2,6-difluoro-4-(2-phenylethynyl)phenyl]-2-(2-methoxyethyl)-9a-methyl-4,9-dihydro-3H-pyrazino[1,2-c]pyrimidine-1,6,8-trione] the same measures were 122% and 137 nM.
For `COCCCN1CCN2C(=O)N(c3c(F)cc(C#Cc4ccccc4)cc3F)C(=O)C[C@@]2(C)C1=O` [Example 80, (9aS)-7-[2,6-difluoro-4-(2-phenylethynyl)phenyl]-2-(3-methoxypropyl)-9a-methyl-4,9-dihydro-3H-pyrazino[1,2-c]pyrimidine-1,6,8-trione], in that order: 132% and 135 nM.
For `C[C@@]12CC(=O)N(c3c(F)cc(C#Cc4ccccc4)cc3F)C(=O)N1CCN(CC(F)(F)F)C2=O` [Example 81, (9aS)-7-[2,6-difluoro-4-(2-phenylethynyl)phenyl]-9a-methyl-2-(2,2,2-trifluoroethyl)-4,9-dihydro-3H-pyrazino[1,2-c]pyrimidine-1,6,8-trione], in that order: 172% and 112 nM.
Regarding `CCOC(=O)CCCN1CCN2C(=O)N(c3c(F)cc(C#Cc4ccccc4)cc3F)C(=O)C[C@@]2(C)C1=O` [Example 82, Ethyl 4-[(9aS)-7-[2,6-difluoro-4-(2-phenylethynyl)phenyl]-9a-methyl-1,6,8-trioxo-4,9-dihydro-3H-pyrazino[1,2-c]pyrimidin-2-yl]butanoate], the Emax came to 134% and the concentration for a half-maximal effect (EC50) amounted to 201 nM.
